{"source": "patent US20200268728A1", "about": "“DRUG TARGETING CANCER STEM CELL” (Sumitomo Dainippon Pharma Co., Ltd., priority 2016, published 2020)", "note": "Counter-ions that a name gives are not always drawn.", "data": [{"tested_on": "H460 cells", "test": "Combination with Example 24, inhibitory effect on sphere-forming ability (Test Example 6)", "assay_type": "cell-based, human", "settings": "H460 sphere culture, test compound combined with Example 24 (2-1000 nmol/L), 4 days", "protocol": "After the culture, CellTiterGlo (Promega) was added into all of the wells, and the plate is allowed to stand at room temperature for 10 minutes to measure the intensity of luminescence of each well. […] The formula for calculating the rate is shown below.\nSphere formation rate (%)=(Lsample)/(Lcontrol)×100\nThe value obtained by dividing the sphere formation rate by 100 and subtracting the calculated value from 1 is defined as a sphere formation inhibitory effect. The formula for calculating the effect is shown below.\nSphere formation inhibitory effect=1−(Sphere formation rate/100)\nAlso, the measured cell survival rate of the combination was defined as (Ld).\nThe minimum value thereof (sCI) was used as the criteria for screening.", "values": [{"molecule": "COc1ccc(-c2ccc3c(N4CCOC[C@@H]4C)nc(N4CCOC[C@@H]4C)nc3n2)cc1CO", "note": "[AZD8055]", "sCI, minimum (Ld)/(Lc)": 0.651}, {"molecule": "Cc1c(NC(=O)OC[C@@H]2COCCN2)cn2ncnc(Nc3ccc4c(cnn4Cc4cccc(F)c4)c3)c12", "note": "[BMS-599626]", "sCI, minimum (Ld)/(Lc)": 0.081}, {"molecule": "Cc1c[nH]c(-c2cnc(NCCNc3ccc(C#N)cn3)nc2-c2ccc(Cl)cc2Cl)n1", "note": "[CHIR-99021]", "sCI, minimum (Ld)/(Lc)": 0.378}, {"molecule": "Cc1nc(Nc2ncc(C(=O)Nc3c(C)cccc3Cl)s2)cc(N2CCN(CCO)CC2)n1", "note": "[Dasatinib]", "sCI, minimum (Ld)/(Lc)": 0.514}, {"molecule": "C=C1/C(=C\\C=C2/CCC[C@]3(C)[C@@H]([C@H](C)/C=C/[C@H](C)C(C)C)CC[C@@H]23)C[C@@H](O)C[C@@H]1O", "note": "[Doxercalciferol]", "sCI, minimum (Ld)/(Lc)": 0.304}, {"molecule": "CCCCCCCCc1ccc(CCC(N)(CO)CO)cc1", "note": "[Fingolimod]", "sCI, minimum (Ld)/(Lc)": 0.007}, {"molecule": "CCc1cc(Nc2nccc(-c3c(-c4ccc(OC)c(C(=O)Nc5c(F)cccc5F)c4)nc4ccccn34)n2)c(OC)cc1N1CCC(N2CCN(S(C)(=O)=O)CC2)CC1", "note": "[GSK1904529A]", "sCI, minimum (Ld)/(Lc)": 0.166}, {"molecule": "Cc1cc2c(C(C)C)c(O)c(O)c(C=O)c2c(O)c1-c1c(C)cc2c(C(C)C)c(O)c(O)c(C=O)c2c1O", "note": "[Gossypol]", "sCI, minimum (Ld)/(Lc)": 0.026}, {"molecule": "Cn1cc(-c2ccc3nnc(C(F)(F)c4ccc5ncccc5c4)n3n2)cn1", "note": "[JNJ-38877605]", "sCI, minimum (Ld)/(Lc)": 0.711}, {"molecule": "CC(C)(C)Cn1c(N)nc2ccc(-c3[nH]c(C(C)(C)C)nc3-c3ccc(F)cc3)nc21", "note": "[LY2228820]", "sCI, minimum (Ld)/(Lc)": 0.020}, {"molecule": "CS(=O)(=O)CCNCc1ccc(-c2ccc3ncnc(Nc4ccc(OCc5cccc(F)c5)c(Cl)c4)c3c2)o1", "note": "[Lapatinib]", "sCI, minimum (Ld)/(Lc)": 0.076}, {"molecule": "Cc1ccc(F)c(NC(=O)Nc2ccc(-c3cccc4[nH]nc(N)c34)cc2)c1", "note": "[Linifanib]", "sCI, minimum (Ld)/(Lc)": 0.142}, {"molecule": "Cc1ccc(NC(=O)c2ccc(CN3CCN(C)CC3)cc2)cc1Nc1nc(-c2cccnc2)cs1", "note": "[Masitinib]", "sCI, minimum (Ld)/(Lc)": 0.010}, {"molecule": "COC1=CC(c2cc3ccccc3[nH]2)=N/C1=C\\c1[nH]c(C)cc1C", "note": "[Obatoclax]", "sCI, minimum (Ld)/(Lc)": 0.061}, {"molecule": "COc1ccc(COc2cc3oc(=O)c4cc(C(C)O)ccc4c3cc2OC)cc1", "note": "(centres unmarked) [Palomid 529]", "sCI, minimum (Ld)/(Lc)": 0.428}, {"molecule": "Cc1ccc(Nc2nccc(N(C)c3ccc4c(C)n(C)nc4c3)n2)cc1S(N)(=O)=O", "note": "[Pazopanib]", "sCI, minimum (Ld)/(Lc)": 0.507}, {"molecule": "Cc1cccc(Nc2nc(-c3ccncc3)cs2)c1", "note": "[STF-62247]", "sCI, minimum (Ld)/(Lc)": 0.221}, {"molecule": "CN1CCN(c2nc(C3=C(c4c[nH]c5ccccc45)C(=O)NC3=O)c3ccccc3n2)CC1", "note": "[Sotrastaurin]", "sCI, minimum (Ld)/(Lc)": 0.030}, {"molecule": "C=CCNC1=C2C[C@@H](C)C[C@H](OC)[C@H](O)[C@@H](C)/C=C(\\C)[C@H](OC(N)=O)[C@@H](OC)/C=C\\C=C(/C)C(=O)NC(=CC1=O)C2=O", "note": "[Tanespimycin]", "sCI, minimum (Ld)/(Lc)": 0.386}, {"molecule": "COc1ccc2cc(-c3nc(-c4ccc([S+](C)[O-])cc4)[nH]c3-c3ccncc3)ccc2c1", "note": "(centres unmarked) [Tie2 kinase inhibitor]", "sCI, minimum (Ld)/(Lc)": 0.123}, {"molecule": "Cn1cncc1[C@@](N)(c1ccc(Cl)cc1)c1ccc2c(c1)c(-c1cccc(Cl)c1)cc(=O)n2C", "note": "[Tipifarnib]", "sCI, minimum (Ld)/(Lc)": 0.564}, {"molecule": "O=C(CCCCCCC(=O)Nc1ccccc1)NO", "note": "[Vorinostat]", "sCI, minimum (Ld)/(Lc)": 0.573}]}, {"tested_on": "HCT-116 cells", "test": "Test for inhibiting sphere-forming ability of cancer cells (Test Example 1)", "assay_type": "cell-based, human", "settings": "Homo sapiens, 96 h, non-adherent serum-free sphere culture, 4 days, CellTiter-Glo, read-out: IC50 (μmol/L), Sphere IC50 value, concentration for 50% inhibition of cell proliferation", "description": "(§1) The reliable methods established for measuring the self-renewal ability of cells which is one of the CSC's properties include a method for measuring the sphere-forming ability of cancer cells in non-adherent condition in the absence of serum (Cancer Res 65, 5506-5511 (2005)). HCT-116 cells were available from the American Type Culture Collection (ATCC). HCT-116 cells were cultured at 37° C. and 5% CO2 using the McCoy's 5a medium containing 10% fetal bovine serum (FBS), 100 U/ml penicillin, and 100 μg/ml streptomycin. HCT-116 cells were seeded in a 384 Well Black Clear Bottom Ultra-Low Attachment Microplate (Corning Cat. No. 3827) in an amount of 350-800 cells/well using the DMEM/F12 medium containing 2% B27 supplement (GIBCO), 20 ng/mL epidermal growth factor (EGF) (peprotech), 10 ng/mL basic fibroblast growth factor (bFGF) (peprotech), 5 μg/mL insulin (Sigma), and 1% penicillin/streptomycin. The test compounds were added into each well to adjust the final concentration of DMSO to 0.1%, and the cells were cultured for 4 days. The number of viable cells in each well was then measured with CellTiter-Glo® Luminescent Cell Viability Assay (Promega) to calculate the concentration of each test compound for 50% inhibition of cell proliferation (Sphere IC50 value; μmol/L).\n(§2) The experiment of Test Example 1 was performed for the compounds of each Example.", "units": {"IC50": "µmol/L"}, "values": [{"molecule": "O=C(Nc1cn(Cc2cccc(C(F)(F)F)c2)cn1)c1ccc(CO)cn1", "note": "[Example 15, 5-(Hydroxymethyl)-N-{1-[3-(trifluoromethyl)benzyl]-1H-imidazol-4-yl}picolinamide]", "IC50": 0.03}, {"molecule": "O=C(Nc1cn(Cc2cccc(C(F)(F)F)c2)cn1)c1csc(CO)n1", "note": "[Example 18]", "IC50": 0.024}, {"molecule": "O=C(Nc1cn(Cc2cc(F)c(F)c(F)c2)cn1)c1csc(CO)n1", "note": "[Example 19]", "IC50": 0.077}, {"molecule": "O=C(Nc1cn(Cc2cc(F)c(F)c(F)c2)cn1)c1ccc(CO)nc1", "note": "[Example 20, 6-(Hydroxymethyl)-N-[1-(3,4,5-trifluorobenzyl)-1H-imidazol-4-yl]nicotinamide]", "IC50": 0.007}, {"molecule": "O=C(Nc1cn(Cc2cccc(Cl)c2)cn1)c1ccc(CO)nc1", "note": "[Example 21]", "IC50": 0.056}, {"molecule": "O=C(Nc1cn(Cc2cccc(C(F)(F)F)c2)cn1)c1ccc(CO)nc1", "note": "[Example 22, 6-(hydroxymethyl)-N-{1-[3-(trifluoromethyl)benzyl]-1H-imidazol-4-yl}nicotinamide]", "IC50": "< 0.01"}, {"molecule": "O=C(Nc1cn(Cc2cccc(C(F)(F)F)c2)cn1)c1cnc(CO)c(C(F)F)c1", "note": "[Example 23, 5-(difluoromethyl)-6-(hydroxymethyl)-N-{1-[3-(trifluoromethyl)benzyl]-1H-imidazol-4-yl}nicotinamide]", "IC50": "< 0.01"}, {"molecule": "O=C(Nc1cn(Cc2cccc(C(F)(F)F)c2)cn1)c1cnc(CO)c(C(F)(F)F)c1", "note": "[Example 25]", "IC50": 0.07}, {"molecule": "O=C(Nc1cn(Cc2cccc(C(F)(F)F)c2)cn1)c1cnc(CO)cn1", "note": "[Example 26]", "IC50": 0.053}, {"molecule": "O=C(Nc1cn(Cc2cccc(C(F)(F)F)c2)cn1)c1cc(CO)on1", "note": "[Example 27]", "IC50": 0.653}, {"molecule": "O=C(Nc1ccc(CO)nc1)c1cn(Cc2cc(F)c(F)c(F)c2)cn1", "note": "[Example 28, N-[6-(Hydroxymethyl)pyridin-3-yl]-1-(3,4,5-trifluorobenzyl)-1H-imidazole-4-carboxamide]", "IC50": "< 0.01"}, {"molecule": "O=C(Nc1ccc2nc(CO)ccc2c1)c1cn(Cc2cc(F)c(F)c(F)c2)cn1", "note": "[Example 29]", "IC50": 0.079}, {"molecule": "O=C(Nc1ccc2c(c1)CCCN2)c1cn(Cc2cc(F)c(F)c(F)c2)cn1", "note": "[Example 33, N-(1,2,3,4-Tetrahydroquinolin-6-yl)-1-(3,4,5-trifluorobenzyl)-1H-imidazole-4-carboxamide dihydrochloride]", "IC50": 0.66}, {"molecule": "Cc1cc(C(=O)Nc2cn(Cc3cc(F)c(F)c(F)c3)cn2)cnc1CO", "note": "[Example 55, 6-(Hydroxymethyl)-5-methyl-N-[1-(3,4,5-trifluorobenzyl)-1H-imidazol-4-yl]nicotinamide]", "IC50": "< 0.01"}, {"molecule": "Nc1cc(C(=O)Nc2cn(Cc3cccc(C(F)(F)F)c3)cn2)cnc1CO", "note": "[Example 58, 5-Amino-6-(hydroxymethyl)-N-{1-[3-(trifluoromethyl)benzyl]-1H-imidazol-4-yl}nicotinamide]", "IC50": 0.029}, {"molecule": "Nc1cc(C(=O)Nc2cn(Cc3cc(F)c(F)c(F)c3)cn2)cnc1CO", "note": "[Example 59, 5-amino-6-(hydroxymethyl)-N-[1-(3,4,5-trifluorobenzyl)-1H-imidazol-4-yl]nicotinamide]", "IC50": 0.01}]}, {"tested_on": "HCT-116 cells", "test": "Test for inhibiting sphere-forming ability of cancer cells (Test Example 1)", "assay_type": "cell-based, human", "settings": "non-adherent serum-free sphere culture, 4 days, CellTiter-Glo, read-out: IC50 (μmol/L), Sphere IC50 value, concentration for 50% inhibition of cell proliferation", "description": "as §1, §2", "units": {"IC50": "µmol/L"}, "values": [{"molecule": "COc1ccc(C(=O)Nc2cn(Cc3ccc(F)cc3F)cn2)cc1OC", "note": "[Example 12, N-[1-(2,4-difluorobenzyl)-1H-imidazol-4-yl]-3,4-dimethoxybenzamide]", "IC50": 0.09}]}, {"tested_on": "HCT116 cells", "test": "Combination with Example 24, inhibitory effect on sphere-forming ability (Test Example 6)", "assay_type": "cell-based, human", "settings": "HCT116 sphere culture, test compound combined with Example 24 (2-1000 nmol/L), 4 days", "values": [{"molecule": "CCN(CC)CCNC(=O)c1c(C)[nH]c(/C=C2\\C(=O)Nc3ccc(-c4csc(-c5ccccc5)n4)cc32)c1C", "note": "[Amcasertib]", "sCI, minimum (Ld)/(Lc)": 0.017}, {"molecule": "CC(C)c1c(C(=O)Nc2ccccc2)c(-c2ccccc2)c(-c2ccc(F)cc2)n1CC[C@@H](O)C[C@@H](O)CC(=O)O", "note": "[Atorvastatin]", "sCI, minimum (Ld)/(Lc)": 0.3}, {"molecule": "CC[C@@H]1C(=O)N(C)c2cnc(Nc3ccc(C(=O)NC4CCN(C)CC4)cc3OC)nc2N1C1CCCC1", "note": "[BI 2536]", "sCI, minimum (Ld)/(Lc)": 0.623}, {"molecule": "Cc1nc(Nc2ncc(C(=O)Nc3c(C)cccc3Cl)s2)cc(N2CCN(CCO)CC2)n1", "note": "[Dasatinib]", "sCI, minimum (Ld)/(Lc)": 0.171}, {"molecule": "CCCCCCCCc1ccc(CCC(N)(CO)CO)cc1", "note": "[Fingolimod]", "sCI, minimum (Ld)/(Lc)": 0.013}, {"molecule": "CC(C)n1c(/C=C/C(O)CC(O)CC(=O)O)c(-c2ccc(F)cc2)c2ccccc21", "note": "(centres unmarked) [Fluvastatin]", "sCI, minimum (Ld)/(Lc)": 0.163}, {"molecule": "CS(=O)(=O)CCNCc1ccc(-c2ccc3ncnc(Nc4ccc(OCc5cccc(F)c5)c(Cl)c4)c3c2)o1", "note": "[Lapatinib]", "sCI, minimum (Ld)/(Lc)": 0.024}, {"molecule": "CC[C@H](C)C(=O)O[C@H]1C[C@@H](C)C=C2C=C[C@H](C)[C@H](CC[C@@H]3C[C@@H](O)CC(=O)O3)[C@H]21", "note": "[Lovastatin]", "sCI, minimum (Ld)/(Lc)": 0.150}, {"molecule": "CC(=O)c1cc2c(o1)C(=O)c1ccccc1C2=O", "note": "[Napabucasin]", "sCI, minimum (Ld)/(Lc)": 0.159}, {"molecule": "COC1=CC(c2cc3ccccc3[nH]2)=N/C1=C\\c1[nH]c(C)cc1C", "note": "[Obatoclax]", "sCI, minimum (Ld)/(Lc)": 0.103}, {"molecule": "CC[C@H](C)C(=O)O[C@H]1C[C@H](O)C=C2C=C[C@H](C)[C@H](CC[C@@H](O)C[C@@H](O)CC(=O)O)[C@H]21", "note": "[Pravastatin]", "sCI, minimum (Ld)/(Lc)": 0.810}, {"molecule": "CN1CCC(CNc2ccc3ncc(-c4cccc(OC(F)(F)F)c4)n3n2)CC1", "note": "[SGI-1776]", "sCI, minimum (Ld)/(Lc)": 0.026}, {"molecule": "O=C(Nc1ccccc1-c1cn2c(CN3CCNCC3)csc2n1)c1cnc2ccccc2n1", "note": "[SRT1720]", "sCI, minimum (Ld)/(Lc)": 0.007}, {"molecule": "CCC(C)(C)C(=O)O[C@H]1C[C@@H](C)C=C2C=C[C@H](C)[C@H](CC[C@@H]3C[C@@H](O)CC(=O)O3)[C@H]21", "note": "[Simvastatin]", "sCI, minimum (Ld)/(Lc)": 0.257}, {"molecule": "CC/C(=C(\\c1ccccc1)c1ccc(OCCN(C)C)cc1)c1ccccc1", "note": "[Tamoxifen]", "sCI, minimum (Ld)/(Lc)": 0.046}, {"molecule": "CN(C)CCOc1ccc(/C(=C(/CCCl)c2ccccc2)c2ccccc2)cc1", "note": "[Toremifene]", "sCI, minimum (Ld)/(Lc)": 0.020}, {"molecule": "Raloxifen", "sCI, minimum (Ld)/(Lc)": 0.010}]}]}
